Laboratory results published in patent publication US12435044B2, “Pyridazinone herbicides and pyridazinone intermediates used to prepare a herbicide” (FMC Corporation, priority 2018, dated 2025).

Columns and labels:
Experiment in all cases: Test C pre-/postemergence greenhouse test
Format in all cases: in vivo
[1] = tested on: blackgrass (Alopecurus myosuroides); conditions: scale 0 to 100
Summary of the method: (§1)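 Formulation: non-phytotoxic solvent mixture including surfactant. Preemergence on seeds in silt loam; postemergence on plants 2 to 18 cm tall in peat-based potting medium. Controls held alongside; visual evaluation at 13 to 21 d, 0 = no effect, 100 = complete control.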

[2] = tested on: corn (Zea mays); conditions: scale 0 to 100
Summary of the method: as §1

[3] = tested on: crabgrass, large (Digitaria sanguinalis); conditions: scale 0 to 100
Summary of the method: as §1

[4] = tested on: galium (catchweed bedstraw, Galium aparine); conditions: scale 0 to 100
Summary of the method: as §1

[5] = tested on: morningglory (Ipomoea coccinea); conditions: Preemergence, scale 0 to 100
Summary of the method: as §1

[6] = tested on: nutsedge, yellow (Cyperus esculentus); conditions: Preemergence, scale 0 to 100
Summary of the method: as §1

[7] = tested on: oilseed rape (Brassica napus); conditions: Preemergence, scale 0 to 100
Summary of the method: as §1

[8] = tested on: pigweed, palmer (Amaranthus palmeri); conditions: scale 0 to 100
Summary of the method: as §1

[9] = tested on: poinsettia, wild (Euphorbia heterophylla); conditions: Preemergence, scale 0 to 100
Summary of the method: as §1

[10] = tested on: ragweed (common ragweed, Ambrosia elatior); conditions: scale 0 to 100
Summary of the method: as §1

[11] = tested on: ryegrass, Italian (Lolium multiflorum); conditions: Preemergence, scale 0 to 100
Summary of the method: as §1

[12] = tested on: soybean (Glycine max); conditions: scale 0 to 100
Summary of the method: as §1

[13] = tested on: velvetleaf (Abutilon theophrasti); conditions: Preemergence, scale 0 to 100
Summary of the method: as §1

Cc1ccc2ccc(F)cc2c1-c1c(O)c(Cl)nn(C)c1=O [Cpd. No. 21]
25: Plant response rating, Crabgrass, Large ([3]; Preemergence, 31 g ai/ha) | Plant response rating, Poinsettia, Wild ([9]; 125 g ai/ha)
100: Plant response rating, Oilseed Rape ([7]; 125 g ai/ha) | Plant response rating, Ragweed ([10]; Preemergence, 31 g ai/ha) | Plant response rating, Ryegrass, Italian ([11]; 125 g ai/ha)
40: Plant response rating, Crabgrass, Large ([3]; Postemergence, 16 g ai/ha) | Plant response rating, Crabgrass, Large ([3]; Postemergence, 62 g ai/ha) | Plant response rating, Morningglory ([5]; 31 g ai/ha) | Plant response rating, Velvetleaf ([13]; 61 g ai/ha)
35: Plant response rating, Blackgrass ([1]; Postemergence, 16 g ai/ha) | Plant response rating, Blackgrass ([1]; Preemergence, 61 g ai/ha)
55: Plant response rating, Pigweed, Palmer ([8]; Preemergence, 31 g ai/ha)
78: Plant response rating, Galium ([4]; Postemergence, 125 g ai/ha)
95: Plant response rating, Galium ([4]; Postemergence, 31 g ai/ha) | Plant response rating, Galium ([4]; Preemergence, 31 g ai/ha) | Plant response rating, Galium ([4]; Preemergence, 62 g ai/ha) | Plant response rating, Galium ([4]; Preemergence, 125 g ai/ha) | Plant response rating, Morningglory ([5]; 125 g ai/ha) | Plant response rating, Nutsedge, Yellow ([6]; 125 g ai/ha) | Plant response rating, Pigweed, Palmer ([8]; Postemergence, 125 g ai/ha) | Plant response rating, Ragweed ([10]; Postemergence, 31 g ai/ha) | Plant response rating, Ragweed ([10]; Preemergence, 125 g ai/ha) | Plant response rating, Velvetleaf ([13]; 125 g ai/ha)
30: Plant response rating, Crabgrass, Large ([3]; Preemergence, 62 g ai/ha) | Plant response rating, Nutsedge, Yellow ([6]; 61 g ai/ha) | Plant response rating, Pigweed, Palmer ([8]; Postemergence, 16 g ai/ha) | Plant response rating, Pigweed, Palmer ([8]; Postemergence, 31 g ai/ha) | Plant response rating, Pigweed, Palmer ([8]; Postemergence, 62 g ai/ha)
23: Plant response rating, Soybean ([12]; Postemergence, 125 g ai/ha)
70: Plant response rating, Blackgrass ([1]; Postemergence, 125 g ai/ha) | Plant response rating, Crabgrass, Large ([3]; Postemergence, 31 g ai/ha) | Plant response rating, Crabgrass, Large ([3]; Postemergence, 125 g ai/ha) | Plant response rating, Pigweed, Palmer ([8]; Preemergence, 62 g ai/ha)
85: Plant response rating, Blackgrass ([1]; Preemergence, 62 g ai/ha) | Plant response rating, Blackgrass ([1]; Preemergence, 125 g ai/ha) | Plant response rating, Nutsedge, Yellow ([6]; 62 g ai/ha) | Plant response rating, Oilseed Rape ([7]; 31 g ai/ha)
15: Plant response rating, Corn ([2]; Postemergence, 62 g ai/ha)
20: Plant response rating, Corn ([2]; Preemergence, 125 g ai/ha) | Plant response rating, Pigweed, Palmer ([8]; Preemergence, 61 g ai/ha) | Plant response rating, Soybean ([12]; Postemergence, 62 g ai/ha)
90: Plant response rating, Galium ([4]; Postemergence, 16 g ai/ha) | Plant response rating, Galium ([4]; Preemergence, 61 g ai/ha) | Plant response rating, Pigweed, Palmer ([8]; Preemergence, 125 g ai/ha) | Plant response rating, Ragweed ([10]; Postemergence, 16 g ai/ha)
0: Plant response rating, Corn ([2]; Postemergence, 16 g ai/ha) | Plant response rating, Corn ([2]; Postemergence, 31 g ai/ha) | Plant response rating, Corn ([2]; Preemergence, 31 g ai/ha) | Plant response rating, Corn ([2]; Preemergence, 61 g ai/ha) | Plant response rating, Crabgrass, Large ([3]; Preemergence, 61 g ai/ha) | Plant response rating, Oilseed Rape ([7]; 61 g ai/ha) | Plant response rating, Poinsettia, Wild ([9]; 61 g ai/ha) | Plant response rating, Soybean ([12]; Preemergence, 31 g ai/ha) | Plant response rating, Soybean ([12]; Preemergence, 61 g ai/ha) | Plant response rating, Soybean ([12]; Preemergence, 62 g ai/ha) | Plant response rating, Soybean ([12]; Preemergence, 125 g ai/ha)
13: Plant response rating, Soybean ([12]; Postemergence, 31 g ai/ha)
18: Plant response rating, Corn ([2]; Postemergence, 125 g ai/ha)
98: Plant response rating, Galium ([4]; Postemergence, 62 g ai/ha) | Plant response rating, Oilseed Rape ([7]; 62 g ai/ha) | Plant response rating, Ragweed ([10]; Postemergence, 62 g ai/ha) | Plant response rating, Ragweed ([10]; Postemergence, 125 g ai/ha) | Plant response rating, Ragweed ([10]; Preemergence, 62 g ai/ha) | Plant response rating, Ryegrass, Italian ([11]; 31 g ai/ha) | Plant response rating, Ryegrass, Italian ([11]; 62 g ai/ha)
10: Plant response rating, Poinsettia, Wild ([9]; 62 g ai/ha) | Plant response rating, Soybean ([12]; Postemergence, 16 g ai/ha)
65: Plant response rating, Blackgrass ([1]; Postemergence, 62 g ai/ha) | Plant response rating, Crabgrass, Large ([3]; Preemergence, 125 g ai/ha)
50: Plant response rating, Blackgrass ([1]; Preemergence, 31 g ai/ha) | Plant response rating, Ryegrass, Italian ([11]; 61 g ai/ha)
5: Plant response rating, Corn ([2]; Preemergence, 62 g ai/ha) | Plant response rating, Morningglory ([5]; 61 g ai/ha) | Plant response rating, Poinsettia, Wild ([9]; 31 g ai/ha)
60: Plant response rating, Blackgrass ([1]; Postemergence, 31 g ai/ha) | Plant response rating, Nutsedge, Yellow ([6]; 31 g ai/ha)
45: Plant response rating, Ragweed ([10]; Preemergence, 61 g ai/ha)
75: Plant response rating, Velvetleaf ([13]; 31 g ai/ha) | Plant response rating, Velvetleaf ([13]; 62 g ai/ha)
80: Plant response rating, Morningglory ([5]; 62 g ai/ha)
